This assay concerns BDF1 mice, Friend leukemia sc, tumor weight T/C. As to the kind of experiment: NCI In Vivo Anticancer Drug Screen. Data for tumor model Friend Virus Leukemia (Solid) (subcutaneous) in B6D2F1 (BDF1) mice. The note with it: endpoint: mean tumor weight, higher = larger tumour. The procedure:
The antitumor activity of compounds was measured in mice bearing transplantable tumors. Survival or tumor size were measured and the results are expressed as the measurement made in the treated group (T) divided by the measurement made in the vehicle treated control group (C). The tumor model used in this assay is Friend Virus Leukemia (Solid) (subcutaneous) in B6D2F1 (BDF1) mice

Setting [1] is: dose: 1.25 mg/kg/injection, schedule: Q01DX011 (ip), vehicle: carboxymethylcellulose (CMC).
Setting [2] is: dose: 2.5 mg/kg/injection, schedule: Q01DX011 (ip), vehicle: carboxymethylcellulose (CMC).
[3] abbreviates: dose: 10.0 mg/kg/injection, schedule: Q01DX011 (ip), vehicle: carboxymethylcellulose (CMC).
The mark [4] stands for this setting: dose: 15.0 mg/kg/injection, schedule: Q01DX011 (ip), vehicle: carboxymethylcellulose (CMC).
Where [5] appears, read: dose: 25.0 mg/kg/injection, schedule: Q01DX011 (ip), vehicle: carboxymethylcellulose (CMC).

Where “and” joins values, the source holds several entries; their conditions need not be identical. Equal values may be shown once. Records with an inconclusive call do not appear.

With `CCC(C)C(NN)C(=O)O` (stereo unspecified), the T/C runs as follows: (dose: 2.5 mg/kg/injection, schedule: Q01DX011 (ip), vehicle: other) 84 % of control; (dose: 5.0 mg/kg/injection, schedule: Q01DX011 (ip), vehicle: other) 104 % of control; (dose: 10.0 mg/kg/injection, schedule: Q01DX011 (ip), vehicle: other) 81 % of control; (dose: 20.0 mg/kg/injection, schedule: Q01DX011 (ip), vehicle: other) 89 % of control; (dose: 40.0 mg/kg/injection, schedule: Q01DX011 (ip), vehicle: other) 83 % of control; (dose: 50.0 mg/kg/injection, schedule: Q01DX011 (ip), vehicle: other) 21 % of control.
Consider `S=P(N1CC1)(N1CC1)N1CC1`, for which the T/C (dose: 0.3 mg/kg/injection, schedule: Q01DX011 (ip), vehicle: carboxymethylcellulose (CMC)) was 79 % of control; the T/C (dose: 0.6 mg/kg/injection, schedule: Q01DX011 (ip), vehicle: carboxymethylcellulose (CMC)) was 73 % of control; the T/C (dose: 0.96 mg/kg/injection, schedule: Q01DX011 (ip), vehicle: carboxymethylcellulose (CMC)) was 72 % of control; the T/C (dose: 1.6 mg/kg/injection, schedule: Q01DX011 (ip), vehicle: carboxymethylcellulose (CMC)) was 99 % of control; the T/C (dose: 2.4 mg/kg/injection, schedule: Q01DX011 (ip), vehicle: carboxymethylcellulose (CMC)) is 61 % of control and 73 % of control.
Turning to `CO/[N+]([O-])=C\C(=O)N/C=C/C(=O)O`, the T/C under setting [1] was 103 % of control; the T/C under setting [2] was 105 % of control; the T/C under setting [3] is 61 % of control; the T/C under setting [4] was 53 % of control; the T/C under setting [5] was 52 % of control.
On to `CS(=O)(=O)OCCCCCCCCCOS(C)(=O)=O`, for which the T/C was 81 % of control (dose: 18.75 mg/kg/injection, schedule: Q01DX011 (ip), vehicle: carboxymethylcellulose (CMC)); 51 % of control (dose: 37.5 mg/kg/injection, schedule: Q01DX011 (ip), vehicle: carboxymethylcellulose (CMC)); 49 % of control (dose: 75.0 mg/kg/injection, schedule: Q01DX011 (ip), vehicle: carboxymethylcellulose (CMC)).
In the case of `NC(=O)/C=C\C(=O)O` (tested in a mixture with another compound), the T/C (dose: 31.0 mg/kg/injection, schedule: Q#A X022 (ip), vehicle: carboxymethylcellulose (CMC)) was 85 % of control; the T/C (dose: 62.5 mg/kg/injection, schedule: Q#A X022 (ip), vehicle: carboxymethylcellulose (CMC)) is 75 % of control; the T/C (dose: 125.0 mg/kg/injection, schedule: Q#A X022 (ip), vehicle: carboxymethylcellulose (CMC)) was 65 % of control; the T/C (dose: 250.0 mg/kg/injection, schedule: Q#A X022 (ip), vehicle: carboxymethylcellulose (CMC)) was 58 % of control.
On to `N=[N+]=CC(=O)OCC(N)C(=O)O` (stereo unspecified), for which the T/C is 49 % of control (dose: 0.38 mg/kg/injection, schedule: Q01DX011 (ip), vehicle: carboxymethylcellulose (CMC)); 37 % of control (dose: 0.75 mg/kg/injection, schedule: Q01DX011 (ip), vehicle: carboxymethylcellulose (CMC)); 39 % of control and 44 % of control (dose: 1.5 mg/kg/injection, schedule: Q01DX011 (ip), vehicle: carboxymethylcellulose (CMC)); 108 % of control (dose: 1.8 mg/kg/injection, schedule: Q01DX011 (ip), vehicle: carboxymethylcellulose (CMC)); 33 % of control (dose: 9.0 mg/kg/injection, schedule: Q01DX011 (ip), vehicle: carboxymethylcellulose (CMC)); 22 % of control and 44 % of control (dose: 12.0 mg/kg/injection, schedule: Q01DX011 (ip), vehicle: carboxymethylcellulose (CMC)). For the same compound, under setting [4], the T/C is 29 % of control.
In the case of `N[C@@H](Cc1ccc(N(CCCl)CCCl)cc1)C(=O)O`, the T/C reads like this: under setting [1], 84 % of control; under setting [2], 50 % of control; (dose: 3.75 mg/kg/injection, schedule: Q01DX011 (ip), vehicle: carboxymethylcellulose (CMC)) 53 % of control; (dose: 4.0 mg/kg/injection, schedule: Q01DX011 (ip), vehicle: carboxymethylcellulose (CMC)) 35 % of control; (dose: 5.0 mg/kg/injection, schedule: Q01DX011 (ip), vehicle: carboxymethylcellulose (CMC)) 35 % of control.
On to `CS(=O)(=O)OCC(=O)NCCNC(=O)COS(C)(=O)=O`, for which the T/C is 93 % of control (dose: 20.0 mg/kg/injection, schedule: Q01DX011 (ip), vehicle: carboxymethylcellulose (CMC)); 110 % of control (dose: 31.0 mg/kg/injection, schedule: Q01DX011 (ip), vehicle: saline); 101 % of control (dose: 40.0 mg/kg/injection, schedule: Q01DX011 (ip), vehicle: carboxymethylcellulose (CMC)); 108 % of control (dose: 62.0 mg/kg/injection, schedule: Q01DX011 (ip), vehicle: saline); 52 % of control (dose: 80.0 mg/kg/injection, schedule: Q01DX011 (ip), vehicle: carboxymethylcellulose (CMC)); 89 % of control (dose: 125.0 mg/kg/injection, schedule: Q01DX011 (ip), vehicle: saline). In addition, the T/C (dose: 250.0 mg/kg/injection, schedule: Q01DX011 (ip), vehicle: saline) was 60 % of control.
Take `OCC1OC(n2cnc3c(=S)nc[nH]c32)C(O)C1O` (stereo unspecified): the T/C is, setting by setting: (dose: 0.1 mg/kg/injection, schedule: Q01DX011 (ip), vehicle: carboxymethylcellulose (CMC)) 82 % of control and 92 % of control; (dose: 0.25 mg/kg/injection, schedule: Q01DX011 (ip), vehicle: carboxymethylcellulose (CMC)) 45 % of control; under setting [3], 54 % of control; under setting [4], 1 % of control and 8 % of control; under setting [5], 17 % of control; (dose: 50.0 mg/kg/injection, schedule: Q01DX011 (ip), vehicle: carboxymethylcellulose (CMC)) 13 % of control. Further, the T/C is 2 % of control (dose: 62.0 mg/kg/injection, schedule: Q01DX011 (ip), vehicle: carboxymethylcellulose (CMC)); 8 % of control (dose: 100.0 mg/kg/injection, schedule: Q01DX011 (ip), vehicle: carboxymethylcellulose (CMC)); 1 % of control (dose: 125.0 mg/kg/injection, schedule: Q01DX011 (ip), vehicle: carboxymethylcellulose (CMC)).

Values taken from PubChem BioAssay AID228 (DTP/NCI, 2004).
